Source: paper PMC4115637 (Pharmacology Research & Perspectives, 2014)

Key:
Format in all cases: cell-based
human TRPV3 [1] = molecular target: T1, human TRPV3 (Homo sapiens, UniProt Q8NET8); test: Calcium flux in TRPV3 overexpressing HEK-293 cells; details: HEK-293 cells overexpressing TRPV3
T1 sequence (Q8NET8 1-790): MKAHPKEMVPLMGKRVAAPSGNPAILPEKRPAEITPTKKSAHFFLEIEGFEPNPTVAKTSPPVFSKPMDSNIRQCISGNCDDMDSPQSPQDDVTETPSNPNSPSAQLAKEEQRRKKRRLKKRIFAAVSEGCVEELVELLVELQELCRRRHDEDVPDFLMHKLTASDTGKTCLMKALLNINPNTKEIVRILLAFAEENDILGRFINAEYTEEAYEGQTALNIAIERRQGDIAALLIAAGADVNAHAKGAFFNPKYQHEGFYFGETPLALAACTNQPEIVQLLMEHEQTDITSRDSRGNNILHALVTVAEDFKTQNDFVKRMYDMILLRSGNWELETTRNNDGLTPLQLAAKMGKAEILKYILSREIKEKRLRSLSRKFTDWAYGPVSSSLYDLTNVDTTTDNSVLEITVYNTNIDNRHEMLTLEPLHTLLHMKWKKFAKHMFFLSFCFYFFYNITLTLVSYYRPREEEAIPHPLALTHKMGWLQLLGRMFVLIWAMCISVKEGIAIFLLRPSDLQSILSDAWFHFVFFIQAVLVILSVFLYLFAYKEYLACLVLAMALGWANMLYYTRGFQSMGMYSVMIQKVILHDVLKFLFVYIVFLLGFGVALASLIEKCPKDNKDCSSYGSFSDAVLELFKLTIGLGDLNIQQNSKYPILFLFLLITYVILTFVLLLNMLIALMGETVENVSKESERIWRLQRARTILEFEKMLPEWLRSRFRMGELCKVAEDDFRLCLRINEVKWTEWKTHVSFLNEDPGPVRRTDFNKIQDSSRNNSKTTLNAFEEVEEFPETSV

human TRPM8 = human TRPM8 (Homo sapiens, UniProt Q7Z2W7); test: Calcium flux in HEK-293 cells overexpressing TRPM8; details: concentrations up to 1 mmol/L
human TRPM8, sequence (Q7Z2W7 whole entry): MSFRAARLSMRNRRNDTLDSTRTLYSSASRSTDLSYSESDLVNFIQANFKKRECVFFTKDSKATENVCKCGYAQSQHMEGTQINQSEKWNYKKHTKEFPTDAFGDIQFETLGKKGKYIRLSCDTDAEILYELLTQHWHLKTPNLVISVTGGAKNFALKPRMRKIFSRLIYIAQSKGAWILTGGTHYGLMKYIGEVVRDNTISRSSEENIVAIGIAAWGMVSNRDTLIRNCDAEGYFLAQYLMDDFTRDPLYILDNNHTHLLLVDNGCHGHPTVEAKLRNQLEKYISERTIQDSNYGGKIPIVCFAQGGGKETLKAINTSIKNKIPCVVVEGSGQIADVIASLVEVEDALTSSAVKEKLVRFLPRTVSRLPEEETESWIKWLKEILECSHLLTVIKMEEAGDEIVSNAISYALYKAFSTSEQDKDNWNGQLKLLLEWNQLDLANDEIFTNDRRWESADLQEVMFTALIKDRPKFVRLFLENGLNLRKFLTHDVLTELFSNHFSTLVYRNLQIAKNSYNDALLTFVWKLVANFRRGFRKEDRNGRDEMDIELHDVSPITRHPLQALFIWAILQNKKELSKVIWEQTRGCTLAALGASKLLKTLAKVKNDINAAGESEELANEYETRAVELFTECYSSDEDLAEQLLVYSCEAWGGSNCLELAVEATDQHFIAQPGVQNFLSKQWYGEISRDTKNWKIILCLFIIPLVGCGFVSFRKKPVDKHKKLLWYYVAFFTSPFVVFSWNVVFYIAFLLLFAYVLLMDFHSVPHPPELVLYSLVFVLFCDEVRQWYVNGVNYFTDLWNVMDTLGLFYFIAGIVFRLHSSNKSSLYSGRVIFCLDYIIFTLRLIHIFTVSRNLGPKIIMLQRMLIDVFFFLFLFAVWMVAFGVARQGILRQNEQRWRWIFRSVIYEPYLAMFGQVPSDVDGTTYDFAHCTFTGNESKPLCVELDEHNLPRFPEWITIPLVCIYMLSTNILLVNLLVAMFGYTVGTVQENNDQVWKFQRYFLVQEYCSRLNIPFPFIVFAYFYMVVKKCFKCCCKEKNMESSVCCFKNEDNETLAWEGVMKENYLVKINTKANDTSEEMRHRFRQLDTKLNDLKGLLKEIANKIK

human TRPV2 = molecular target: T2, human TRPV2 (Homo sapiens, UniProt Q9Y5S1); test: Calcium flux in HEK-293 cells overexpressing TRPV2; details: concentrations up to 1 mmol/L
T2 sequence (Q9Y5S1 1-764): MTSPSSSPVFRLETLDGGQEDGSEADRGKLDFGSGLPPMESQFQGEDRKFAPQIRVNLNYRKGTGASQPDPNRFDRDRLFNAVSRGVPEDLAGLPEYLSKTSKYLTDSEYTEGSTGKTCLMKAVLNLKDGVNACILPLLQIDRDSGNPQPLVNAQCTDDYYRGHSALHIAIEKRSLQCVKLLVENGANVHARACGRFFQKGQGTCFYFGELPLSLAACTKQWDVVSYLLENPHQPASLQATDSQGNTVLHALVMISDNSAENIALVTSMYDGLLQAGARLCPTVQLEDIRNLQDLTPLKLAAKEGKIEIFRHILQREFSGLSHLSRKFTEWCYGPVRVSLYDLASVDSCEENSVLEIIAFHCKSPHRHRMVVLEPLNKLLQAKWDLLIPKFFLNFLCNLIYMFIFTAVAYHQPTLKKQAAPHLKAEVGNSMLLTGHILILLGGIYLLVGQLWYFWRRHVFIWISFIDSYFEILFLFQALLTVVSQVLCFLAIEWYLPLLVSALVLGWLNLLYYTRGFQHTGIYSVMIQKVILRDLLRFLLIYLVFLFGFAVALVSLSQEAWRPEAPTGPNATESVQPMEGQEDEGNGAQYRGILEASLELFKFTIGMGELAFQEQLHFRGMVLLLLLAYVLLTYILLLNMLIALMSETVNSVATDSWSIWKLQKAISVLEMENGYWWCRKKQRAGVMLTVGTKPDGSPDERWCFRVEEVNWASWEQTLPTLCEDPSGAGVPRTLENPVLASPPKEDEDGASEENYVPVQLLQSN

human TRPV4 = human TRPV4 (Homo sapiens, UniProt Q9HBA0); test: Calcium flux in HEK-293 cells overexpressing TRPV4; details: concentrations up to 1 mmol/L
human TRPV4, sequence (Q9HBA0 whole entry): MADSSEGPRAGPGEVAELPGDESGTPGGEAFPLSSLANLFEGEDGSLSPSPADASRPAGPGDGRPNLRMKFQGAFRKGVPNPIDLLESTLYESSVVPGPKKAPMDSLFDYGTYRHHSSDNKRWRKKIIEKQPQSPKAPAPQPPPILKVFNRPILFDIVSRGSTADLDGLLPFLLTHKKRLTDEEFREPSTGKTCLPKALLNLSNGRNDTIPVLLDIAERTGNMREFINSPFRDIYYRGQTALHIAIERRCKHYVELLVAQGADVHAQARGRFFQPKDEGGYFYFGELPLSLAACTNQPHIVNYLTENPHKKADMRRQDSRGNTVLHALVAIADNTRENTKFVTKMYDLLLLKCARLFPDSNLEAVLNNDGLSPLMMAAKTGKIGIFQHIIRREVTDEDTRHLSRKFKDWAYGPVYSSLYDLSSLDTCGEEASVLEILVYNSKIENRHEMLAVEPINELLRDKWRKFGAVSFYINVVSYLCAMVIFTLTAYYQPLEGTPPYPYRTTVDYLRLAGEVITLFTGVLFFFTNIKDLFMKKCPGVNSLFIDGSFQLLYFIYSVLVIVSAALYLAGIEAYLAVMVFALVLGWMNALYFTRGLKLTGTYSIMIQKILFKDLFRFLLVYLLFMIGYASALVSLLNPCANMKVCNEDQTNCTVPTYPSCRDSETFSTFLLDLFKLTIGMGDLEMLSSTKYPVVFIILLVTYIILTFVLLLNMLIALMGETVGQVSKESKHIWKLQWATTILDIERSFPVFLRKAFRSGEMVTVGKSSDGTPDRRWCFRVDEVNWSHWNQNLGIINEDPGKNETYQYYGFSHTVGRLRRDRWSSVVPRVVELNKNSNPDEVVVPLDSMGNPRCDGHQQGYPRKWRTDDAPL

TRPV3 in HaCaT cells = molecular target: T3, TRPV3 in HaCaT cells (Homo sapiens, UniProt Q8NET8); test: Calcium flux in HaCaT cells
T3 sequence (Q8NET8 1-790): T1 sequence (Q8NET8 1-790)

human TRPV3 [2] = molecular target: T1, human TRPV3; test: Re-evaluation of screening hits as TRPV3 agonists; details: Table 1

`CCN(CC)CCOC(=O)C(c1ccccc1)C1CCCCC1` (stereo not shown) [drofenine] was tested, and the “lowest concentration with detectable change in TRPV3 activity” value (human TRPV3 [1]) was ~30 µmol/L, the “activation of TRPM8” value (human TRPM8) was “not observed” and the “activation of TRPV2” value (human TRPV2) was “not observed”. The “activation of TRPV4” value (human TRPV4) was “not observed”, the EC50 (TRPV3 in HaCaT cells) was 605 µM and the “maximum change in fluorescence relative to ionomycin” value (TRPV3 in HaCaT cells; HaCaT cells) was ~80%. The “Comment(s): re-evaluation as TRPV3 agonist” value (human TRPV3 [2]) was “TRPV3-selective agonist”.
